Reference: patent publication US4549023A, “3-Aminoindazole derivatives” (priority 1980, dated 1985)
Like-named read-outs stand apart in the source and are kept apart here.

Tests used:
[1] = Acute toxicity (LD50), intravenous injection; details: mouse, in vivo, male ddY-strain mice, read-out: LD50, Table 19
Description: Acute toxicity was measured by an ordinary method described in Finney DJ Probit Analysis Cambridge University Press 48, (1952). Ddy mice weighing about 18 g on average, each group consisting of 10 animals, were […] injected with the physiological salt solution containing the test compound. The amount of the test compound administered was varied in 5-8 groups. Three days after the administration, dead animals were counted in each group. The amount of the test compound killing half the number of the animals (LD50) was calculated from the results.
The acute toxicity of the 3-aminoindazole derivatives and their hydrochloric acid salts obtained by Examples 1-49 of this invention was measured by giving male ddY-strain mice an intravenous injection.

[2] = test system: carrageenin edema in rat's paw; experiment: Carrageenin Edema Test in Rat's Paw (anti-inflammatory activity); assay type: in vivo, Female Wistar rats; details: for inhibition in vivo at 100 mg/kg: Rattus norvegicus, hydrochloric acid salts; for Inhibition values compared with comparative compounds: Table 1, 100 mg/kg
Description: A standard method of Carrageenin Edema Test in Rat's Paw described in C. A. Winter et al., Proc. Soc. Exp. Biol. Med., 111, 544 (1962) was employed.
[…] One hour later, the pad of a hind paw of the rat was injected with 0.1 ml of 1% aqueous carrageenin solution. The volume of the paw was measured both before the injection of carrageenin and three hours after the injection.
The edema inhibition percentage of the test compound was calculated from the ratio of the increase in the volume of the affected paw of the test animals to the increase in the volume of the affected paw of the controls.
The anti-inflammatory activity of the 3-aminoindazole derivative hydrochloric acid salts of this invention was measured.
The anti-inflammatory activity of the 3-aminoindazole derivative hydrochloric acid salts obtained by Examples 1-49 of this invention was measured by the standard method of carrageenin edema test. In these tests, the amount of the administration of the salts was 100 mg/kg. The results are shown in Table 17 (Inhibition (%) was measured three hours after the injection).

[3] = test system: acetic acid-induced writhing in mice; experiment: Acetic Acid-Writhing Test (analgesic activity); assay type: in vivo, Male ddy-strain mice; details: 100 mg/kg, oral, hydrochloric acid salts
Description: Acetic acid-writhing test was carried out according to Koster et al., Fed. Proc., 18, 412 (1959). […] Thirty minutes later, the mice were intraperitoneally injected with 0.1 ml/10 g of 0.7% acetic acid physiological salt solution as a stimulant. Ten minutes after the stimulant injection, writhing frequency as pain response was observed and recorded over 10 minutes.
The inhibition percentage of the test compound was represented as the ratio of the inhibition of the writhing frequency.
Analgesic activity of 3-aminoindazole derivative hydrochloric acid salts was measured by acetic acid-writhing test.

[4] = test system: carrageenin-inflamed hind paw of the rat (pressure pain); experiment: Randall-Selitto Test (analgesic activity); assay type: in vivo, Female wister rats; details: for Analgesic Coefficient, Table 18: 100 mg/kg, hydrochloric acid salts; for Analgesic Coefficient, Table 18 / Analgesic coefficient: water 0.8; for Analgesic coefficient: Randall-Selitto, oral, 50 mg/kg per method; for Analgesic activity by the Randall-Selitto test: rat, in vivo
Description: The Randall-Selitto analgesic activity test was carried out according to the general method described in J. O. Randall & J. J. Selitto, Arch. Int. Pharmacodyn, 111, 409 (1957). Female wister rats weighing 120-150 g were orally administered 50 mg/kg of the test compound as an aqueous solution. Thirty minutes later, the pad of a hind paw of the rat was injected with 0.1 ml of 1% aqueous carrageenin solution. Pressure was applied to the paw where edema was formed by Balance-type Pressure Device (Ugo Basile Company; Italy) 1, 2, 3 and 4 hours after the injection. The weight when the test animals began to struggle with pain was measured. The analgesic activity is represented by an analgesic coefficient which is obtained by dividing the average weight measured 1.5, 2.5, 3.5 and 4.5 hours after the administration by the applied weight prior to the administration.
The analgesic activity of the 3-aminoindazole derivative hydrochloric acid salts obtained by Examples 2, 6, 10, 18, 22 and 28 of this invention was measured by the standard method of Randall-Selitto test. In these tests, the amount of the administration of the salts was 100 mg/kg.

gastric ulcer in rats = experiment: Anti-Ulcer Test: occurrence of gastric ulcer by test compound alone; assay type: in vivo, Male donryu rats
Description: Ulcer inhibition of 3-(3-diethylaminopropylamino)indazole (10) and 1-(3-piperidinopropyl)-3-aminoindazole (18), typical and preferred compounds of this invention, was measured.

[5] = test system: gastric ulcer caused by indomethacin; details: for Ulcer index: rat, in vivo
Description: The test compound was suspended in 1% HCO-60 (trade name for polyoxyethylene hydrogenated castor oil; a product of Nikko Chemical Co., Ltd., Japan) at the concentration of 10 mg/ml. Male donryu rats weighing 150-160 g were orally administered 100 mg/kg of the test compound. The occurrence of gastric ulcer was examined 24 hours after the administration.
It is well known that the single use of acidic non-steroidal anti-inflammatory drugs causes a side effect in digestive tracts such as gastric ulcer.

primary inflammation = details: Silvest et al., Arzneim-Forsch, 16, 59 (1966); cited from earlier work
[6] = po, 3 h, 100 mg/kg, measured three hours after the injection, read-out: Inhibition (carrageenin edema), Table 17
[7] = 100 mg/kg, oral, 3 h after carrageenin, read-out: Inhibition (carrageenin edema), Table 1
[8] = 100 mg/kg singly administered at one time, oral
[9] = 100 mg/kg compound together with 20 mg/kg of indomethacin
[10] = 100 mg/kg compound together with 10 mg/kg of indomethacin

SMILES | LD50 at 72 h [1] [mg/kg] | Inhibition (carrageenin edema), Table 2 ([2]; 25 mg/kg, oral) [%] | Inhibition (carrageenin edema), Table 2 ([2]; 50 mg/kg, oral) [%] | Inhibition (carrageenin edema), Table 2 ([2]; 100 mg/kg, oral) [%] | inhibition in vivo at 100 mg/kg [2, 6] [%] | inhibition in vivo at 100 mg/kg [2, 7] [%] | Inhibition values compared with comparative compounds [2] | Inhibition (acetic acid-writhing), Table 3 [3] [%] | Analgesic Coefficient, Table 18 [4] | Analgesic coefficient [4] | Analgesic activity by the Randall-Selitto test [4] | Gastric ulcer occurrence (gastric ulcer in rats; [8]) | Occurrence frequency in combination [5, 9] | Ulcer index in combination [5, 9] [mm] | Gastric ulcer occurrence (gastric ulcer in rats; administered for 5 days) | Occurrence frequency in combination [5, 10] | Ulcer index in combination [5, 10] [mm] | Effect against primary inflammation (primary inflammation) | Ulcer index ([5]; 10 mg/kg) [mm] | Ulcer index ([5]; 20 mg/kg) [mm]
CC1CCCCN1CCCNc1n[nH]c2ccccc12 (stereo not shown) [Compound (6), 3-{3-(2-methylpiperidino)propylamino}indazole] | 91 | 40 | 53 | 67 | 67 | 67 | higher than that of the compound C-1 | 49 | 1.11 | 1.11 | potent analgesic activity | – | – | – | – | – | – | – | – | –
CCN(CC)CCCNc1n[nH]c2ccccc12 [Compound (10), 3-(3-diethylaminopropylamino)indazole] | 233 | – | – | – | 66 | 66 | higher than that of the compound C-1 | – | 1.31 | – | – | Gastric ulcer did not occur | not changed | 14.9 | – | – | – | – | – | –
Nc1nn(CCCN2CCCCC2)c2ccccc12 [Compound (18), 1-(3-piperidinopropyl)-3-aminoindazole] | 102 | – | – | – | 54 | 54 | higher than those of the compounds C-2 and C-3 | 43 | 1.38 | – | – | Gastric ulcer did not occur | – | – | gastric ulcer did not occur | not changed | 2.5 | – | – | –
CC1CCCCN1CCCn1nc(N)c2ccccc21 (stereo not shown) [Compound (22), 1-{3-(2-methylpiperidino)propyl}-3-aminoindazole] | 102 | 29 | 33 | 51 | 51 | 51 | higher than those of the compounds C-2 and C-3 | 31 | 1.05 | 1.05 | potent analgesic activity | – | – | – | – | – | – | – | – | –
CN(C)CCCOc1nn(Cc2ccccc2)c2ccccc12 [Compound C-4, 1-benzyl-3-(3-dimethylaminopropoxy)indazole, reference compound] | – | 8 | 20 | 51 | – | – | – | – | – | – | – | – | – | – | – | – | – | effective against primary inflammation | – | –
COc1ccc2c(c1)c(CC(=O)O)c(C)n2C(=O)c1ccc(Cl)cc1 [indomethacin, reference compound] | – | – | – | – | – | – | – | – | – | – | – | – | – | – | – | – | – | – | 10.2 | 34.3
